# Results: US20130137760A1, “GAMBOGIC AMINE, A SELECTIVE TRKA AGONIST WITH NEUROPROTECTIVE ACTIVITY” (EMORY UNIVERSITY, priority 2007, published 2013)
# What was measured:
# hippocampal neurons = assay: Glutamate-triggered neuronal cell death in hippocampal neurons; type: cell-based; conditions: in vitro
# Method: To examine whether test compounds can promote neuronal survival, hippocampal neurons can be prepared, and the primary neurons pre-treated with various test compounds for a period of time, for example, 30 min, followed by 50 μM glutamate treatment for a period of time, for example, 16 h.
# TrkA is highly expressed in hippocampal neurons (Culmsee et al., 2002; Kume et al., 2000; Zhang et al., 1993). […] To examine whether these compounds can promote neuronal survival, one can prepare hippocampal neurons and pre-treat the primary neurons with various gambogic amine derivatives for 30 min, followed by 50 μM glutamate treatment for 16 h.
# hippocampus = assay: Kainic acid-elicited neuronal cell death in mouse brain (TUNEL, hippocampus); type: in vivo, C57BL/6 mice; conditions: mouse brain
# Text: Kainic acid (KA) is a potent agonist for the AMPA receptor. Peripheral injections of KA result in recurrent seizures and the subsequent degeneration of select populations of neurons in the hippocampus (Nadler et al., 1980; Schauwecker and Steward, 1997; Sperk et al., 1983). It has been shown that the activation of caspase-3 is a necessary component of KA-induced cell death (Faherty et al., 1999). To explore whether test compounds can block the neurotoxicity initiated by KA, the compounds can be subcutaneously injected (for example, at a concentration of 2 mg/kg) into C57BL/6 mice, followed by 25 mg/kg KA. In 5 days, the mice can be perfused and the brains cut to a thickness of 5 μm and mounted on slides.
# Kainic acid (KA) is a potent agonist for the AMPA receptor. Peripheral injections of KA result in recurrent seizures and the subsequent degeneration of select populations of neurons in the hippocampus (Nadler et al., 1980; Schauwecker and Steward, 1997; Sperk et al., 1983). It has been shown that the activation of caspase-3 is a necessary component of KA-induced cell death (Faherty et al., 1999). To explore whether gambogic amines can block the neurotoxicity initiated by KA, one can subcutaneously inject 2 mg/kg of a gambogic amine into C57BL/6 mice, followed by 25 mg/kg KA. In 5 days, the mice can be perfused and the brains were cut to a thickness of 5 μm and mounted on slides. TUNEL staining can reveal whether KA provokes enormous apoptosis in the hippocampus, and whether this effect is substantially diminished by the gambogic amine.
# Male C57BL/6 mice aged of 60 days can be injected subcutaneously (s.c.) with a single dose of either 30% ethanol in saline or KA (25 mg/kg) (Sigma, Mo.) or the gambogic amine (2 mg/kg) followed by KA. Animals can be continually monitored for 2 h for the onset of seizure activity. At 5 days following treatment, animals can be anesthetized and perfused with 4% paraformaldehyde in 0.1 M phosphate buffered saline. Brains can be removed, post-fixed overnight and processed for paraffin embedding. […]
# infarct volume = assay: Transient middle cerebral artery occlusion (MCAO) stroke model, infarct volume; parameters: species or system rats; conditions: rat, in vivo
# Method: To further determine the neuroprotective potential in vivo, test compounds can be tested in a transient middle cerebral artery occlusion (MCAO) stroke model in adult male rats. After 2 h MCAO followed by reperfusion, the animals receive vehicle or test compounds (2 mg/kg) 5 min prior to the onset of reperfusion.
# A representative brain slice stained with TTC 24 h after MCAO in vehicle-treated and compound-treated rats can be subjected to area and volume measurements from TTC sections to indicate whether treatments with the compound substantially reduces infarct volumes in this transient ischemic model of stroke. […]
# To further determine the neuroprotective potential in vivo, the gambogic amine can be tested in a transient middle cerebral artery occlusion (MCAO) stroke model in adult male rats. […] LDF (laser-Doppler flowmetry) can be measured over the ipsilateral parietal cortex. The effects of the gambogic amine on relative CBF (cerebral blood flow) can be evaluated. After filament withdrawal (120 min), relative CBF can also be measured in the vehicle-treated group and gambogic amine-treated groups, and compared with preischemic levels.
# Rats can be used in a study of focal ischemia. […] Using a SurgiVet (model V3304; Waukesha, Wis., USA) pulse oximeter, blood SpO2 can be monitored and maintained at levels 90%. […]
structure (smiles),measurement,setting,value
CC(C)=CCC[C@]1(C)C=Cc2c(O)c3c(c(CC=C(C)C)c2O1)O[C@]12C(=C[C@@H]4CC1C(C)(C)O[C@@]2(C/C=C(/C)C(N)=O)C4=O)C3=O [gambogic amide],protection of hippocampal neurons from glutamate-triggered neuronal cell death,hippocampal neurons,potent neurotrophic effects
same,block of kainic acid-elicited neuronal cell death in mouse brain,hippocampus,strongly block
same,decrease of stroke-induced infarct volume,infarct volume,effectively decrease
